Measured values as given in PubChem BioAssay (NCI).
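Following 48 hours of exposure in 96-well plates, responses at five concentrations were used to interpolate endpoints linearly. TGI denotes the concentration required for complete inhibition of growth.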

Key:
Assay in all cases: inhibition of tumour cell growth, NCI panel, 48 h
SR leukemia = system: SR leukemia
MDA-MB-435 = system: MDA-MB-435
U251 CNS = system: U251 CNS
KM12 colon = system: KM12 colon
NCI-H226 lung = system: NCI-H226 lung
HCT-116 colon = system: HCT-116 colon
NCI/ADR-RES ovarian = system: NCI/ADR-RES ovarian
HCT-15 colon = system: HCT-15 colon
UO-31 renal = system: UO-31 renal
HL-60(TB) leukemia = system: HL-60(TB) leukemia
HCC-2998 colon = system: HCC-2998 colon
NCI-H460 lung = system: NCI-H460 lung
OVCAR-3 ovarian = system: OVCAR-3 ovarian
DU-145 prostate = system: DU-145 prostate
TK-10 renal = system: TK-10 renal
HS 578T breast = system: HS 578T breast
COLO 205 colon = system: COLO 205 colon
SN12C renal = system: SN12C renal
SW-620 colon = system: SW-620 colon
OVCAR-8 ovarian = system: OVCAR-8 ovarian
SK-OV-3 ovarian = system: SK-OV-3 ovarian
MDA-MB-231 breast = system: MDA-MB-231 breast
A549 NSCLC = system: A549 NSCLC
SK-MEL-28 melanoma = system: SK-MEL-28 melanoma
RXF 393 renal = system: RXF 393 renal
A498 renal = system: A498 renal
CAKI-1 renal = system: CAKI-1 renal
HOP-92 NSCLC = system: HOP-92 NSCLC
T-47D breast = system: T-47D breast
SNB-19 CNS = system: SNB-19 CNS
SF-539 CNS = system: SF-539 CNS
CCRF-CEM leukemia = system: CCRF-CEM leukemia
SF-268 CNS = system: SF-268 CNS
OVCAR-5 ovarian = system: OVCAR-5 ovarian
LOX IMVI melanoma = system: LOX IMVI melanoma
MDA-N = system: MDA-N
PC-3 prostate = system: PC-3 prostate
ACHN renal = system: ACHN renal
BT-549 breast = system: BT-549 breast
IGROV1 ovarian = system: IGROV1 ovarian
UACC-257 melanoma = system: UACC-257 melanoma
NCI-H522 lung = system: NCI-H522 lung
HOP-62 NSCLC = system: HOP-62 NSCLC
SF-295 CNS = system: SF-295 CNS
NCI-H23 lung = system: NCI-H23 lung
MCF7 breast = system: MCF7 breast
786-0 renal = system: 786-0 renal
M14 melanoma = system: M14 melanoma
SK-MEL-2 melanoma = system: SK-MEL-2 melanoma
RPMI-8226 leukemia = system: RPMI-8226 leukemia
EKVX NSCLC = system: EKVX NSCLC
MOLT-4 leukemia = system: MOLT-4 leukemia
MALME-3M melanoma = system: MALME-3M melanoma
HT29 colon = system: HT29 colon
UACC-62 melanoma = system: UACC-62 melanoma
K-562 leukemia = system: K-562 leukemia
SK-MEL-5 melanoma = system: SK-MEL-5 melanoma
OVCAR-4 ovarian = system: OVCAR-4 ovarian

Measured: TGI

O=C1NC2CCCCC2N=C1CC(=O)c1ccc(Br)cc1 (stereo not drawn)
93.8 µM: EKVX NSCLC
94.2 µM: BT-549 breast
19.8 µM: OVCAR-8 ovarian
7.16 µM: RPMI-8226 leukemia
65.8 µM: HOP-92 NSCLC
42.1 µM: HS 578T breast
35.7 µM: MDA-MB-231 breast
81.2 µM: NCI-H226 lung
not listed: OVCAR-4 ovarian
> 100 µM: all other assays above

O=C(/C=C/C(=O)N1CCCC1)N1CCCC1
not listed: NCI-H226 lung
> 100 µM: all other assays above

O=C1C=CC(=O)N1n1c(-c2ccccc2)n[nH]c1=O
not listed: KM12 colon | UO-31 renal | SW-620 colon | SK-MEL-28 melanoma | HOP-92 NSCLC | SNB-19 CNS | LOX IMVI melanoma | ACHN renal | RPMI-8226 leukemia
> 100 µM: all other assays above
